From US20250346592A1 (Celgene Corporation, priority 2022, published 2025)

What follows are molecules tested against T1, hPAD4 enzyme (Homo sapiens (Human), UniProt Q9UM07) (assay: RFMS1 assay (RapidFire mass spectrometry, BAEE substrate)). Details: 5 nM hPAD4, 250 μM BAEE, 30 min preincubation at 37° C., 90 min reaction; read-out: RFMS 1 IC50.
T1 sequence (Q9UM07 whole entry): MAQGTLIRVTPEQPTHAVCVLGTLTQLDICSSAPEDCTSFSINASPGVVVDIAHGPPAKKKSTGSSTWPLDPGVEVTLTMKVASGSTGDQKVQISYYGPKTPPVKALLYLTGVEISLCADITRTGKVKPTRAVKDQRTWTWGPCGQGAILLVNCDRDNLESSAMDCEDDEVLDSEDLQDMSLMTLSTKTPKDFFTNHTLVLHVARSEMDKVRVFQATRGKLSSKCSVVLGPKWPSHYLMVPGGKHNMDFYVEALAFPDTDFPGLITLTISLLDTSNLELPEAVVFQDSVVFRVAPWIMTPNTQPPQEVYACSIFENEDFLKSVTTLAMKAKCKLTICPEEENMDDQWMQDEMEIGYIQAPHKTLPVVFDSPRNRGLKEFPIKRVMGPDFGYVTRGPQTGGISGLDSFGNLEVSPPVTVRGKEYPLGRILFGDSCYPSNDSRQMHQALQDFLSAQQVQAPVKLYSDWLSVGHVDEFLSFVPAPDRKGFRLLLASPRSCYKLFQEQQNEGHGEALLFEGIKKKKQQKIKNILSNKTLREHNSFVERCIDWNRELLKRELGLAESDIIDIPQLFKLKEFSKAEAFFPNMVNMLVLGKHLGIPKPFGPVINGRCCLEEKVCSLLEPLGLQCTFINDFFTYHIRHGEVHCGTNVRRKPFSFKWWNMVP
Type: biochemical
Method: Compounds were solubilized in 100% DMSO to achieve a 10 mM compound concentration. Compound stock solutions were stored at RT. A series of dilutions were prepared in DMSO and mixed 8 times with 20 μL mixing volume. Final top concentration of compound in the assay is 50 μM. Final assay conditions were as follows: • Reaction volume: 26 μl • Assay buffer: 25 mM hepes, pH 7.5, 5 mM NaCl, 1 mM DTT, 0.2 mg/ml BSA, 0.01% CHAPS, 50 µM Calcium, and 5 μM TPEN • Final concentrations: 5 nM hPAD4 enzyme, 250 µM BAEE, and 0.5% DMSO • Total incubation time: 30 mins compound and enzyme preincubation at 37° C., 90 min enzyme/substrate reaction, 30 min reaction with phenyl glyoxal at 37° C. • Stop solution: 40 μl 5% TCA in ACN • 0.13 μL of compound solution was added to 13 μL of 10 nM PAD4 in assay buffer. After […] min 13 μl of 500 µM of BAEE was added in 25 mM hepes, pH 7.5, 5 mM NaCl, 1 mM DTT, 0.2 mg/ml BSA, 0.01% CHAPS, 50 μM Calcium, 5 μM TPEN was added and the reaction incubated for 90 min at 37° C. The enzymatic reaction was quenched by addition of 15 μl of 6.1N TCA, 100% Final Concentration is 20%, 35 μl of 8.5 mM phenyl glyoxal (final concentration 4 mM) is then added and the reaction is incubated for 30 min at 37° C.
After 30 minutes the plates are spun down to remove all precipitate. The enzyme reaction was quenched with an equal volume of methanol containing internal standard (modified citrulline). Samples were loaded onto the Rapid Fire RF300 system (Agilent) wherein they were first sipped for 1000 ms and then directly loaded to a C18 separations cartridge using a mixture of acetonitrile containing 0.01% formic acid for 3000 ms desalting. The flow rate of the mobile phase was 1.5 ml/min. Once the samples were eluted from the cartridge, a mobile phase of acetonitrile containing 0.01% formic acid was used to move the samples into the mass spectrometer for 4000 ms at a flow rate of 1.25 ml/min/Sciex API5500 triple quadrupole mass spectrometer (Applied Biosystems) equipped with ESI was used to analyze the peptidyl citrulline and internal standard ions.
MRM transition of product and internal standard were monitored at m/z 424.5 to 350.4 and m/z 293 to 247 respectively. The dwell time for each transition was set at 200 ms, and the ESI voltage was used at 5500 with a source temperature of 400° C. Extracted ion peaks for each transition were integrated using the Rapid Fire Integrator software. Peak area of analyte was normalized with internal standard.).
Compounds having an activity designated as “A” provided an IC50≤10 nM; compounds having an activity designated as “B” provided an IC50 11-100 nM; compounds having an activity designated as “C” provided an IC50 101-500 nM; compounds having an activity designated as “D” provided an IC50 501-1000 nM; compounds having an activity designated as “E” provided an IC50>1000 nM.
In the case of `Cn1c(-c2cc3cccc(OC(F)Cn4ccnc4)c3n2CC2CC2)nc2cc3c(cc21)CCN(C[C@H](N)CF)C3=O` (single isomer, unassigned) [Example 226a], the IC50 is reported as ≤ 10 nM.
Molecule `Cc1cc(N2CCCS2(=O)=O)ccc1-c1ccc2cc(-c3nc4cc5c(cc4n3C)CCN(C[C@H](N)CF)C5=O)n(CC3CC3)c2n1` [Example 57, (S)-6-(2-amino-3-fluoropropyl)-2-(1-(cyclopropylmethyl)-6-(4-(1,1-dioxidoisothiazolidin-2-yl)-2-methylphenyl)-1H-pyrrolo[2,3-b]pyridin-2-yl)-1-methyl-1,6,7,8-tetrahydro-5H-imidazo[4,5-g]isoquinolin-5-one] has an IC50 of 11 to 100 nM.
`Cc1cc(N2CC(C)(C)OC2=O)ccc1-c1ccc2cc(-c3nc4cc5c(cc4n3C)CCN(C[C@H](N)CF)C5=O)n(CC3CC3)c2n1` [Example 58, (S)-3-(4-(2-(6-(2-amino-3-fluoropropyl)-1-methyl-5-oxo-5,6,7,8-tetrahydro-1H-imidazo[4,5-g]isoquinolin-2-yl)-1-(cyclopropylmethyl)-1H-pyrrolo[2,3-b]pyridin-6-yl)-3-methylphenyl)-5,5-dimethyloxazolidin-2-one] showed an IC50 of 11 to 100 nM.
`CCc1nc(N2CCOC2=O)ccc1-c1ccc2cc(-c3nc4cc5c(cc4n3C)CCN(C[C@H](N)CF)C5=O)n(CC3CC3)c2n1` [Example 61, (S)-3-(5-(2-(6-(2-amino-3-fluoropropyl)-1-methyl-5-oxo-5,6,7,8-tetrahydro-1H-imidazo[4,5-g]isoquinolin-2-yl)-1-(cyclopropylmethyl)-1H-pyrrolo[2,3-b]pyridin-6-yl)-6-ethylpyridin-2-yl)oxazolidin-2-one] was tested, and the IC50 was 11 to 100 nM.
`COc1cccc2cc(-c3nc4cc5c(cc4n3C)CCN(C[C@H](N)CF)C5=O)n(CCOC(F)F)c12` [Example 135, (S)-6-(2-amino-3-fluoropropyl)-2-(1-(2-(difluoromethoxy)ethyl)-7-methoxy-1H-indol-2-yl)-1-methyl-1,6,7,8-tetrahydro-5H-imidazo[4,5-g]isoquinolin-5-one] gave an IC50 of 11 to 100 nM.
In the case of `C[C@H](COc1cccc2cc(-c3nc4cc5c(cc4n3C)CCN(C[C@H](N)CF)C5=O)n(CC3CC3)c12)n1cnc(F)c1` [Example 217, 6-((S)-2-amino-3-fluoropropyl)-2-(1-(cyclopropylmethyl)-7-((R)-2-(4-fluoro-1H-imidazol-1-yl)propoxy)-1H-indol-2-yl)-1-methyl-1,6,7,8-tetrahydro-5H-imidazo[4,5-g]isoquinolin-5-one], the IC50 is reported as ≤ 10 nM.
With `C[C@H](COc1cccc2cc(-c3nc4cc5c(cc4n3C)CCN(C[C@@H](C)N)C5=O)n(CC3CC3)c12)n1cnc(F)c1` [Example 230, 6-((R)-2-aminopropyl)-2-(1-(cyclopropylmethyl)-7-((R)-2-(4-fluoro-1H-imidazol-1-yl)propoxy)-1H-indol-2-yl)-1-methyl-1,6,7,8-tetrahydro-5H-imidazo[4,5-g]isoquinolin-5-one] the IC50 was ≤ 10 nM.

These molecules were tested against T1, hPAD4 enzyme (assay: RFMS2 assay (RapidFire mass spectrometry, TSTGGRQGSHH peptide substrate)). Details: 35 nM recombinant human PAD4, 500 μM TSTGGRQGSHH peptide, 30 minutes at room temperature; read-out: RFMS 2 IC50.
Type: biochemical
Procedure, shortened: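 IC50 derived from RapidFire LC-MS/MS (positive ESI MRM) of substrate versus product after a 30 min room-temperature reaction stopped with 10% formic acid. Reaction contained 35 nM human PAD4, 500 μM peptide, 2 mM CaCl2, 5 mM DTT at pH 7.4, and compounds diluted 3-fold from 20 μM.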
`COC(=O)NC[C@H](C)Oc1cccc2cc(-c3nc4cc5c(cc4n3C)CCN(C[C@H](N)CF)C5=O)n(CC3CC3)c12` [Example 202, methyl ((S)-2-((2-(6-((S)-2-amino-3-fluoropropyl)-1-methyl-5-oxo-5,6,7,8-tetrahydro-1H-imidazo[4,5-g]isoquinolin-2-yl)-1-(cyclopropylmethyl)-1H-indol-7-yl)oxy)propyl) carbamate] was tested, and the IC50 was 101 to 500 nM.
In the case of `Cn1c(-c2cc3cccc(OCCc4cc[nH]c4)c3n2CC2CC2)nc2cc3c(cc21)CCN(C[C@H](N)CF)C3=O` [Example 203], the IC50 is reported as 101 to 500 nM.
`COC(=O)N[C@H](C)COc1cccc2cc(-c3nc4cc5c(cc4n3C)CCN(C[C@H](N)CF)C5=O)n(CC3CC3)c12` [Example 209, methyl ((R)-1-((2-(6-((S)-2-amino-3-fluoropropyl)-1-methyl-5-oxo-5,6,7,8-tetrahydro-1H-imidazo[4,5-g]isoquinolin-2-yl)-1-(cyclopropylmethyl)-1H-indol-7-yl)oxy)propan-2-yl) carbamate] gave an IC50 of 501 to 1000 nM.
`CNC(=O)OCCOc1cccc2cc(-c3nc4cc5c(cc4n3C)CCN(C[C@H](N)CF)C5=O)n(CC3CC3)c12` [Example 211, (S)-2-((2-(6-(2-amino-3-fluoropropyl)-1-methyl-5-oxo-5,6,7,8-tetrahydro-1H-imidazo[4,5-g]isoquinolin-2-yl)-1-(cyclopropylmethyl)-1H-indol-7-yl)oxy)ethyl methylcarbamate] was tested, and the IC50 was 101 to 500 nM.
`Cn1c(-c2cc3cccc(OCC(C)(C)O)c3n2CC2CC2)nc2cc3c(cc21)CCN(C[C@H](N)CF)C3=O` [Example 214, (S)-6-(2-amino-3-fluoropropyl)-2-(1-(cyclopropylmethyl)-7-(2-hydroxy-2-methylpropoxy)-1H-indol-2-yl)-1-methyl-1,6,7,8-tetrahydro-5H-imidazo[4,5-g]isoquinolin-5-one] showed an IC50 of 501 to 1000 nM.
`Cn1c(-c2cc3cccc(OC[C@@H](O)C(F)(F)F)c3n2CC2CC2)nc2cc3c(cc21)CCN(C[C@H](N)CF)C3=O` [Example 215, 6-((S)-2-amino-3-fluoropropyl)-2-(1-(cyclopropylmethyl)-7-((R)-3,3,3-trifluoro-2-hydroxypropoxy)-1H-indol-2-yl)-1-methyl-1,6,7,8-tetrahydro-5H-imidazo[4,5-g]isoquinolin-5-one] was tested, and the IC50 was 101 to 500 nM.
Work on `Cn1c(-c2cc3cccc(OC[C@H](O)C(F)(F)F)c3n2CC2CC2)nc2cc3c(cc21)CCN(C[C@H](N)CF)C3=O` [Example 216, 6-((S)-2-amino-3-fluoropropyl)-2-(1-(cyclopropylmethyl)-7-((S)-3,3,3-trifluoro-2-hydroxypropoxy)-1H-indol-2-yl)-1-methyl-1,6,7,8-tetrahydro-5H-imidazo[4,5-g]isoquinolin-5-one] yielded an IC50 of 101 to 500 nM.
Work on `Cn1c(-c2cc3cccc(OCCO)c3n2Cc2ccno2)nc2cc3c(cc21)CCN(C[C@H](N)CF)C3=O` [Example 218, (S)-6-(2-amino-3-fluoropropyl)-2-(7-(2-hydroxyethoxy)-1-(isoxazol-5-ylmethyl)-1H-indol-2-yl)-1-methyl-1,6,7,8-tetrahydro-5H-imidazo[4,5-g]isoquinolin-5-one] yielded an IC50 of 101 to 500 nM.
`Cn1c(-c2cc3cccc(OCC4CCNC4=O)c3n2CC2CC2)nc2cc3c(cc21)CCN(C[C@H](N)CF)C3=O` (stereo partly drawn) [Example 219, 6-((S)-2-amino-3-fluoropropyl)-2-(1-(cyclopropylmethyl)-7-((2-oxopyrrolidin-3-yl)methoxy)-1H-indol-2-yl)-1-methyl-1,6,7,8-tetrahydro-5H-imidazo[4,5-g]isoquinolin-5-one] gave an IC50 of 101 to 500 nM.
`Cn1c(-c2cc3cccc(OCCn4cnc(C#N)n4)c3n2CC2CC2)nc2cc3c(cc21)CCN(C[C@H](N)CF)C3=O` [Example 224, (S)-1-(2-((2-(6-(2-amino-3-fluoropropyl)-1-methyl-5-oxo-5,6,7,8-tetrahydro-1H-imidazo[4,5-g]isoquinolin-2-yl)-1-(cyclopropylmethyl)-1H-indol-7-yl)oxy)ethyl)-1H-1,2,4-triazole-3-carbonitrile] gave an IC50 of 101 to 500 nM.
`Cn1c(-c2cc3cccc(OCCn4ncnc4C#N)c3n2CC2CC2)nc2cc3c(cc21)CCN(C[C@H](N)CF)C3=O` [Example 225, (S)-1-(2-((2-(6-(2-amino-3-fluoropropyl)-1-methyl-5-oxo-5,6,7,8-tetrahydro-1H-imidazo[4,5-g]isoquinolin-2-yl)-1-(cyclopropylmethyl)-1H-indol-7-yl)oxy)ethyl)-1H-1,2,4-triazole-5-carbonitrile] was tested, and the IC50 was > 1000 nM.
`COc1ccc2cc(-c3nc4cc5c(c(F)c4n3C)CCN(C[C@H](N)CF)C5=O)n(CC3CC3)c2c1` [Example 239, (S)-6-(2-amino-3-fluoropropyl)-2-(1-(cyclopropylmethyl)-6-methoxy-1H-indol-2-yl)-9-fluoro-1-methyl-1,6,7,8-tetrahydro-5H-imidazo[4,5-g]isoquinolin-5-one] showed an IC50 of 501 to 1000 nM.
